The source of these data is US4617394A, “4-methyl-5-(unsubstituted and substituted phenoxy)-2,6-dimethoxy-8-(aminoalkylamino) quinolines” (priority 1985, dated 1986).

Data set [1] concerns P. berghei yoelli. The data set is described as follows: Causal prophylactic activity against sporozoite induced P. berghei yoelli in the mouse. In kind it is in vivo. The conditions noted are these: for Cures: subcutaneous.
Data set [2] has as its system methemoglobin. In kind it is in vivo, Dog. The conditions noted are these: for Peak % MHb / Slope of MHb Formation / Time of Peak MHb / MHb Disappearance Half-Time / MHb Production as AUC Corrected for Baseline: oral capsule, days 0-3, 3 mg/kg primaquine base per day or molar equivalent; for Peak % MHb / Slope of MHb Formation / Time of Peak MHb / MHb Production as AUC Corrected for Baseline: means differ significantly (p <.05); for MHb Disappearance Half-Time: no difference in the means; for MHb Production as AUC Corrected for Baseline: total methemoglobin production.
Experimental: ^a Primaquine, Comparative Compound, or Compound X, were administered
orally by capsule for four days on days 0, 1, 2 and 3 at a dose of 3 mg/k
primaquine base per day or the molar equivalent.
^e Total methemoglobin production expressed as mg of MHb/ml of
blood/hr for a total of 2 days after administration of the first dose.
^f Area under the % methemoglobin versus time curve (AUC).

Data set [3] relates to Chesson strain of P. vivax. Nature of the data set: Antimalarial activity against (trophozoite-induced) infections of the Chesson strain of P. vivax in the Aotus monkey. In kind it is in vivo.
The test system of data set [4] is Plasmodium cynomolgi (strain B). Nature of the data set: Radical Curative Test in Rhesus Monkeys, SEATO Medical Research Laboratory. The conditions noted are these: for Cures (C): Table 8, Seato; for Radical Curative Activity, Cures (C): Table 1, Seato Rhesus. In kind it is in vivo, Indian rhesus monkeys. On the procedure:
Radical Curative Test in Rhesus Monkeys, SEATO Medical Research Laboratory, Bangkok,
This test is designed to evaluate the tissue schizonticidal (radical curative) activity of test compounds. Well-conditioned Indian rhesus monkeys of either sex weighing 2-4 Kg are utilized. Plasmodium cynomolgi (strain B) sporozoites are prepared by grinding heavily infected Anopheles dirus salivary glands in 1:1 monkey serum-saline vehicle.
Monkeys are infected by I.V. injection of 10^6 freshly isolated P. cynomolgi sporozoites on day 0. A rapidly rising parasitemia develops after a 7 to 9 day prepatient period, and administration of the test drug is initiated when the rising parasite count exceeds 5000 per mm^3 (typically day 10-12). Test drugs are administered orally (by nasogastric intubation) once daily for 7 consecutive days in aqueous solution or, if insoluble, in suspension in 0.3% methylcellulose solution. Chloroquine diphosphate (3.1 mg of base/kg orally per day) is always administered concurrently with the test drug for 7 days to eliminate blood schizonts. Thus any tissue schizonticidal activity of the test drug will always be apparent even if it lacks blood schizonticidal activity.
A vehicle control monkey and a positive drug control (primaquine) monkey are included in each group of inoculated monkeys.
The effect of the test drug is determined by counting blood parasites. Parasite counts are made daily through day 20, and every two days thereafter. Initially a clearance of blood parasites is observed due to the blood schizonticidal action of chloroquine. […] If there is no relapse within 20 days of the initial clearance of parasitemia, the monkey is splenectomized and its parasitemia followed for an additional 30 days. If there is no relapse within this period, the experiment is terminated and the monkey is considered "cured". Alternately, in some experiments, negative parasitemia was followed for 100 days without prior splenectomy. It has been determined that the splenectomy and non-splenectomy methods yield virtually identical results.
Primaquine diphosphate cures over 90% of monkeys in this test system when administered at a dose of 1.3 mg/kg of salt per day for 7 days ([…]) in combination with chloroquine.

For data set [5], the system named is Plasmodium berghei KBG 173. Nature of the data set: animal or person. The settings on record: for ΔMST: 5 mice; for Toxic death (T): number of 5 mice, 320 mg/kg. In kind it is in vivo, young ICR/HA Swiss mice. An excerpt: Blood Schizonticidal Test (Mouse), University of Miami, Rane (suppressive)
This system is based on comparisons of responses to test compounds by Plasmodium berghei KBG 173 malaria in mice as expressed in mean survival times and the mean survival times of untreated controls. Thus, compounds noted as active produce increases in the survival times of the treated animals that are significant when compared with the survival times of untreated controls. Since an established disease is less sensitive to treatment than a disease in the early stages of development, treatment is withheld until the parasitemia is relatively high in order to insure a more reliable assay of activity and the selection of appropriate compounds for intensive preclinical studies.
Utilizing young ICR/HA Swiss mice and a standard inoculum of Plasmodium berghei KBG 173, it is possible to produce a uniform disease fatal to 100% of untreated animals within 6 to 8 days with a mean survival time of 6.2 days. Test animals weigh from 18 to 22 grams but weight variations in any given experimental or control group are confined to 2 to 3 grams. All animals in any given test are approximately of the same age. Animals on test are housed in metal-topped plastic cages, given a standard laboratory diet and water ad libitum.
Test animals receive an intraperitoneal injection of 0.5 ml of 1:100 dilution of heparinized heart's blood with a minimum of 90% parasitized cells (4×10^7 cells), drawn from donor mice infected one week earlier with Plasmodium berghei. The donor strain is maintained by weekly passages in separate groups of mice inoculated with a 0.5 ml of 1:500 dilution of heparinized heart's blood.
Test compounds are administered after dissolution or suspension in peanut oil. A single dose is given subcutaneously 72 hours after the mice are infected with Plasmodium berghei. At this time a 10-15 percent parasitemia has developed; the disease is well established but has not produced sufficient debility to alter the response of the host to toxic effects of the drug on test. Since treatment is withheld for three days to permit the infection to become well established and death occurs in untreated controls within 6 to 8 days, it is believed that this system presents a candidate compound with the maximum challenge. In order to check factors such as changes in the infectivity of Plasmodium berghei or in the susceptibility of the host or to detect technical errors, a group of infected animals treated with pyrimethamine at dose levels producing definite increases in survival time is included as a positive control in every experiment.
In each experiment test compounds are administered in graded doses. […] However, if an active drug is toxic for the host, its toxicity may become a limiting factor; continued increases in dose levels also increase the toxic effects and may result in the diminution of survival times. Deaths prior to the sixth day, when untreated controls begin to die, are regarded as non-parasitic and become the basis for the interpretation that the drug is toxic. Treated animals are kept under observation for 60 days. Survivors at the end of this period of time are considered as cured.
An increase of 100% in mean survival time is considered the minimum effective response for a candidate compound. In calculating mean survival time, toxic deaths and 60 day survivors are not included.

The nature of data set [6]: Acute toxicity in the rat by oral or intraperitoneal administration. The settings on record: for LD50 (95% Confidence Limit): Rat.
The test system of data set [7] is Plasmodium vivax and P. ovale malaria. The conditions noted are these: background; cited from earlier work.
The subject of data set [8] is methemoglobin. The conditions noted are these: background; cited from earlier work.
In data set [9] the test system is Plasmodium berghei KBG 173. The settings on record: dose levels as low as; cited from earlier work.
Setting [10] is: Table 2, P. cynomolgi, Rhesus, 0.10 mg/kg × 7 of salt.
[11] abbreviates: Table 2, P. cynomolgi, Rhesus, 0.316 mg/kg × 7 of salt.
Setting [12] is: Table 2, P. cynomolgi, Rhesus, 1.0 mg/kg × 7 of salt.

Each structure is given as a SMILES string. Where “and” joins values, the source holds several entries; their conditions need not be identical. Equal values may be shown once. Entries after “also recorded” stand apart in the source; their conditions may differ. Read-outs that look alike come from different tables or passages of the source.

For `COc1cc(C)c2c(Oc3cccc(C(F)(F)F)c3)c(OC)cc(NC(C)CCCN)c2n1.O=C(O)CCC(=O)O` (stereo not shown) [Compound X, 8-(4-Amino-1-methylbutylamino)-2,6-dimethoxy-4-methyl-5-(3-trifluoromethylphenoxy)quinoline Succinate], the Cures is recorded as 0/5 in data set [1] (2.5 mg/kg of salt); 4/10 in data set [1] (10 mg/kg of salt); 9/10 in data set [1] (40 mg/kg of salt); 5/5 in data set [1] (160 mg/kg of salt); 2/2 in data set [3] (1 mg/kg × 3 of base); 4/4 in data set [3] (4 mg/kg × 3 of base). Also, the Cures is 3/3 in data set [3] (16 mg/kg × 3 of base); 1/1 in data set [3] (32 mg/kg × 3 of base); 0/2 in data set [4] (Table 2, P. cynomolgi, Rhesus, 0.0316 mg/kg × 7 of salt); 2/4 in data set [4] (setting [10]); 4/4 in [4] (setting [11]); 2/2 in data set [4] (setting [12]). Moreover, the “prophylactic activity in words” value in data set [1] (Table 5, Succinate) is recorded as “showed prophylactic activity; also recorded: slightly less than that observed with the Comparative Compound”. The “total methemoglobin formation (area under the curve), less than Comparative Compound” value in data set [2] (Table 7, 46% less) amounted to 46%. The “methemoglobin-forming property in words” value is “significantly less toxic in terms of methemoglobinemia” in data set [2] (Table 7, Succinate) and “much less potent methemoglobin-forming compound than the Comparative Compound” in [2] (Table 7, listed as Compound X succinate, Succinate). Further, the “peak level of methemoglobin” value in data set [2] (Table 7, equimolar doses) was determined as 16%. Further, in [2] (footnote h, data of single dogs of the group, Succinate), the “MHb Disappearance Half-Time, individual dogs” value is 5.08 days and 7.71 days and 23.30 days. Further, the “Peak % MHb” value in data set [2] is given as 16.0 ± 7.72%. For the same compound, the “Slope of MHb Formation” value in data set [2] was 0.61 ± 0.10. Also, in data set [2], the “Time of Peak MHb” value turned out to be 6.83 ± 0.72 days. Moreover, the “MHb Disappearance Half-Time” value in [2] is 12.03 ± 9.85 days. Moreover, the “MHb Production as AUC Corrected for Baseline” value in data set [2] is 7,887 ± 3,609 mg of MHb/ml of blood/hr. Besides, the “blood schizonticidal activity in words” value in [3] (Table 3, Succinate) is reported as “much greater blood schizonticidal activity than primaquine; also recorded: slightly better activity than the Comparative Compound”. For the same compound, the “Molar Primaquine Index by Regression Analysis” value in [4] (Table 2, ratio of molar ED50, relative to primaquine) was 12.8. The “Cures (C)” value in [4] (P. cynomolgi, 0.0316 mg/kg (×7)) is recorded as 0/2; in [4] (P. cynomolgi, 0.1 mg/kg (×7)) it was 2/4; in [4] (P. cynomolgi, 0.316 mg/kg (×7)), 4/4; in [4] (P. cynomolgi, 1.0 mg/kg (×7)) it was 2/2. The “potency relative to primaquine diphosphate, molar basis” value in data set [4] (calculated by regression analysis, P. cynomolgi, Rhesus) was 12.8 times. Moreover, in data set [4] (radical curative, P. cynomolgi, Rhesus), the “potency relative to Comparative Compound” value was “approximately two”. Besides, the “blood schizonticidal activity in the mouse, in words” value in data set [5] (Table 4) was “blood schizonticidal activity in the mouse similar to the Comparative Compound”. Also, the ΔMST turned out to be 4 days in data set [5] (Table 4, 5 mg/kg); 6 days in data set [5] (Table 4, 10 mg/kg); 9 days in data set [5] (Table 4, 20 mg/kg). Besides, the “LD50 (95% Confidence Limit)” value is listed as 71 (14-114) mg/kg (Salt) in data set [6] (female, I.P.); 416 (376-449) mg/kg (Salt) in data set [6] (female, oral); 102 (25-164) mg/kg (Salt) in [6] (male, I.P.); 429 (320-515) mg/kg (Salt) in data set [6] (male, oral). Moreover, in [6] (Table 6, orally or intraperitoneally), the “acute toxicity in words” value is on record as “less toxic than primaquine or the Comparative Compound”.
Take `COc1cc(NC(C)CCCN)c2ncccc2c1` (stereo not shown) [Primaquine diphosphate, 8-(4-amino-1-methylbutylamino)-6-methoxyquinoline]: in [2], the “Peak % MHb” value came to 6.27 ± 3.86%. In addition, the “Slope of MHb Formation” value in data set [2] came out at 0.93 ± 0.61. Further, the “Time of Peak MHb” value in data set [2] stood at 3.92 ± 0.34 days. Besides, in [2], the “MHb Disappearance Half-Time” value stood at 7.89 ± 3.30 days. Also, the “MHb Production as AUC Corrected for Baseline” value in data set [2] was 2,138 ± 1,484 mg of MHb/ml of blood/hr. Further, in [7], the “toxicity in man, in words” value is on record as “the toxicity of primaquine precludes administration of a single curative dose”. Besides, the Cures in data set [3] (3.3 mg/kg × 3 of base) was 0/10; in data set [3] (13.3 mg/kg × 3 of base) it was 3/8; in data set [3] (26 mg/kg × 3 of base), 5/6; in data set [4] (1.0 mg/kg), 50%; in data set [4] (1.3 mg/kg), 100%; in data set [4] (setting [10]), 0/2. Also, the Cures in [4] (setting [11]) is 0/2; in data set [4] (setting [12]), 1/2; in data set [4] (Table 2, P. cynomolgi, Rhesus, 1.3 mg/kg × 7 of salt), 6/6. Moreover, the “radical curative activity in words” value in data set [4] (0.316 mg/kg) is “inactive”. Further, in [4] (1.3 mg/kg of salt per day for 7 days (1.0 mg/kg free base), in combination with chloroquine), the monkeys cured entry is “over 90%”. For the same compound, the “Radical Curative Activity, Cures (C)” value is 0/2 in [4] (P. cynomolgi, 0.316 mg/kg (× 7)); 1/2 in data set [4] (P. cynomolgi, 1.0 mg/kg (× 7)); 6/6 in data set [4] (P. cynomolgi, 1.3 mg/kg (× 7)). The minimal effective dose in data set [5] (Plasmodium berghei, in Mus musculus, Table 4, read-out: active dose (active only at)) came to 160 mg/kg. Further, the “suppressive activity in words” value in data set [5] (Rane mouse test) is given as “very weak activity at non-toxic dose levels”. Further, the ΔMST in data set [5] (Table 1, P. berghei, Rane Mouse Test, 160 mg/kg) worked out at 9 days; in data set [5] (Table 4, 160 mg/kg), 9 days. Moreover, the “Toxic death (T)” value in [5] (Table 1) and in data set [5] (Table 4) was 2/5 each time. Besides, the “curative activity in words” value in data set [5] (Table 4, highest dose of 640 mg/kg) is reported as “not curative even at the highest dose of 640 mg/kg”. Moreover, in data set [8], the “methemoglobin formation in words” value is recorded as “cause methemoglobinemia; also recorded: Methemoglobin formation is induced”. For the same compound, the “LD50 (95% Confidence Limit)” value in [6] (female, oral) is given as 244 (193-260) mg/kg (Salt).
In the case of `OC(c1cc(C(F)(F)F)nc2c(C(F)(F)F)cccc12)C1CCCCN1` (stereo not shown) [mefloquine], in data set [9], the “curative dose, Rane Mouse Test” value is on record as 20 mg/kg.
